Data from PMC10225205 (Cancer Medicine, 2023).

Test system: advanced solid tumors
Assay: FIGHT-102 efficacy, investigator-assessed RECIST 1.1
Type: in vivo, human
Design: key to Best overall response: PR, partial response; SD, stable disease; PD, progressive disease; NE, not evaluable
Protocol: Efficacy assessments occurred at screening (baseline scan) and on Day 15 of every third cycle with a ±2‐day window. Tumor status was assessed by the investigator using appropriate disease‐specific techniques. For solid tumors, the Response Evaluation Criteria in Solid Tumors (RECIST) 1.1 criteria were used,[19] and the recommended method for measuring tumor burden was computed tomography scan. Alternative modalities compatible with RECIST 1.1 could be used at the investigator's discretion provided they were used consistently throughout the study.
Both the efficacy and the safety population included all patients who received at least 1 dose of study drug. The PK/pharmacodynamic population included all patients who received at least one dose of study drug and provided at least one postdose plasma sample for PK/pharmacodynamic measurement. No comparisons are made between patients or against historical controls; only comparisons to pretreatment conditions were made.

[1] = Part 1, 18 mg ID, other (intrahepatic cholangiocarcinoma), not tested
[2] = Part 2, 13.5 mg CD, breast cancer, local FGFR1 amp, FGFR3 mutation
[3] = Part 2, 13.5 mg CD, colorectal cancer, central FGFR1 amp
[4] = Part 2, 13.5 mg CD, gallbladder cancer, central FGF3/4/19 amp
[5] = Part 2, 13.5 mg CD, other (prostate cancer), central FGFR1 amp
[6] = Part 2, 13.5 mg CD, other (rectal cancer), central FGFR1 amp
[7] = Part 2, 13.5 mg CD, other (uterine cervix carcinoma), central FGFR2 amp
[8] = Part 2, 13.5 mg CD, urothelial tract/bladder cancer (bladder cancer), central FGF3/4/19 amp, FGFR3 alteration
[9] = Part 2, 13.5 mg CD, urothelial tract/bladder cancer (renal pelvis cancer), central FGF3/4/19 amp
[10] = Part 2, 13.5 mg ID, breast cancer, central FGFR1 amp
[11] = Part 2, 13.5 mg ID, cholangiocarcinoma, central FGFR2 alteration, local FGFR2 translocation
[12] = Part 2, 13.5 mg ID, cholangiocarcinoma, central FGFR3 mutation
[13] = Part 2, 13.5 mg ID, colorectal cancer, central FGFR1 amp
[14] = Part 2, 13.5 mg ID, esophageal cancer, central FGF3/4/12/19 amp
[15] = Part 2, 13.5 mg ID, esophageal cancer, central FGFR1 amp
[16] = Part 2, 13.5 mg ID, lung cancer (NSCLC), central FGFR1 amp, FGF12 amp
[17] = Part 2, 13.5 mg ID, other (apocrine sweat gland carcinoma), central FGFR2 amp
[18] = Part 2, 13.5 mg ID, other (intrahepatic cholangiocarcinoma), central FGFR3 fusion
[19] = Part 2, 13.5 mg ID, other (urachal cancer), central FGF3 amp
[20] = Part 2, 13.5 mg ID, urothelial tract/bladder cancer (bladder cancer), central FGFR3 mutation (p.Y373C)
[21] = Part 2, 13.5 mg ID, urothelial tract/bladder cancer (renal pelvis cancer), central FGF3/4/19 amp

Q: `CCN1C(=O)N(c2c(F)c(OC)cc(OC)c2F)Cc2cnc3[nH]c(CN4CCOCC4)cc3c21` [Pemigatinib] was tested. Which Best overall response (Part 1, 18 mg ID, neuroendocrine cancer, local FGF6/23 amp) did it give?
A: PD

Q: And the “Best change in sum of target lesion diameters” value (shortened to “Best change in sum”) (Part 1, 18 mg ID, other (intrahepatic cholangiocarcinoma), central none, local FGFR2 fusion)?
A: 0%

Q: And the Best overall response (Part 1, 18 mg ID, other (intrahepatic cholangiocarcinoma), local FGFR2 fusion)?
A: SD

Q: What about the “Best change in sum” value [1] of the same compound?
A: 16.7%

Q: What about the Best overall response [1] of the same compound?
A: PD

Q: And the Best overall response (Part 1, 18 mg ID, other (pancreatic head cancer))?
A: PD

Q: And the “Best change in sum” value (Part 1, 18 mg ID, other (pancreatic head cancer), local no alteration detected)?
A: 1.0%

Q: And the “Median of best percentage change from baseline in target lesion size” value (Part 2)?
A: 15.2%

Q: And the “Patients achieving PR” value (Part 2, 13.5 mg CD)?
A: 4 n

Q: And the “Patients achieving PR” value (Part 2, 13.5 mg ID)?
A: 1 n

Q: What about the Partial response (Part 2, 5 patients) of the same compound?
A: 16.7%

Q: What about the Stable disease (Part 2, 6 patients) of the same compound?
A: 20%

Q: What about the “Best change in sum” value [2] of the same compound?
A: 6.4%

Q: What about the Best overall response [2] of the same compound?
A: NE

Q: And the Best overall response (Part 2, 13.5 mg CD, breast cancer, local FGFR2 amp (best change –26.2%))?
A: SD

Q: What about the Best overall response (Part 2, 13.5 mg CD, breast cancer, local FGFR2 amp (best change –44.4%)) of the same compound?
A: PR

Q: And the “Best change in sum” value (Part 2, 13.5 mg CD, breast cancer, local FGFR2 amp (patient with PR))?
A: –44.4%

Q: What about the “Best change in sum” value (Part 2, 13.5 mg CD, breast cancer, local FGFR2 amp (patient with SD)) of the same compound?
A: –26.2%

Q: What about the “Best change in sum” value (Part 2, 13.5 mg CD, cholangiocarcinoma, central none, local FGFR2 translocation) of the same compound?
A: –30.6%

Q: What about the Best overall response (Part 2, 13.5 mg CD, cholangiocarcinoma, local FGFR2 translocation) of the same compound?
A: PR

Q: And the “Best change in sum” value [3]?
A: 26.5%

Q: And the Best overall response [3]?
A: PD

Q: And the “Best change in sum” value (Part 2, 13.5 mg CD, colorectal cancer, central none, local FGF19 amp)?
A: 41.0%

Q: And the Best overall response (Part 2, 13.5 mg CD, colorectal cancer, local FGF19 amp)?
A: PD

Q: And the Best overall response (Part 2, 13.5 mg CD, esophageal cancer, FGFR3 translocation: fusion)?
A: SD

Q: What about the “Best change in sum” value (Part 2, 13.5 mg CD, esophageal cancer, central and local FGFR3 translocation: fusion) of the same compound?
A: –4.3%

Q: What about the “Best change in sum” value [4] of the same compound?
A: –43.8%

Q: What about the Best overall response [4] of the same compound?
A: PR

Q: What about the “Best change in sum” value [5] of the same compound?
A: 15.2%

Q: What about the Best overall response [5] of the same compound?
A: PD

Q: What about the “Best change in sum” value [6] of the same compound?
A: 0.0%

Q: What about the Best overall response [6] of the same compound?
A: SD

Q: What about the “Best change in sum” value [7] of the same compound?
A: 22.7%

Q: What about the Best overall response [7] of the same compound?
A: PD

Q: What about the “Best change in sum” value [8] of the same compound?
A: –37.2%

Q: And the Best overall response [8]?
A: PR

Q: What about the “Best change in sum” value [9] of the same compound?
A: 12.1%

Q: What about the Best overall response [9] of the same compound?
A: PD

Q: And the “Best change in sum” value [10]?
A: 18.1%

Q: And the Best overall response [10]?
A: PD

Q: What about the “Best change in sum” value [11] of the same compound?
A: –13.8%

Q: What about the Best overall response [11] of the same compound?
A: SD

Q: And the “Best change in sum” value [12]?
A: 30.9%

Q: And the Best overall response [12]?
A: PD

Q: And the “Best change in sum” value [13]?
A: 44.7%

Q: And the Best overall response [13]?
A: PD

Q: And the “Best change in sum” value [14]?
A: 34.9%

Q: What about the Best overall response [14] of the same compound?
A: PD

Q: And the Best overall response (Part 2, 13.5 mg ID, esophageal cancer, central FGF3/4/19 amp, local FGF19 amp)?
A: PD

Q: What about the “Best change in sum” value [15] of the same compound?
A: 6.5%

Q: What about the Best overall response [15] of the same compound?
A: SD

Q: And the “Best change in sum” value (Part 2, 13.5 mg ID, esophageal cancer, central FGFR1 amp, FGF3/4/19 amp (first of two such patients))?
A: 37.8%

Q: What about the Best overall response (Part 2, 13.5 mg ID, esophageal cancer, central FGFR1 amp, FGF3/4/19 amp (first of two)) of the same compound?
A: PD

Q: What about the “Best change in sum” value (Part 2, 13.5 mg ID, esophageal cancer, central FGFR1 amp, FGF3/4/19 amp (second of two such patients)) of the same compound?
A: 3.0%

Q: And the Best overall response (Part 2, 13.5 mg ID, esophageal cancer, central FGFR1 amp, FGF3/4/19 amp (second of two))?
A: PD

Q: And the “Best change in sum” value (Part 2, 13.5 mg ID, gallbladder cancer, central none, local FGFR3 mutation)?
A: 25.0%

Q: And the Best overall response (Part 2, 13.5 mg ID, gallbladder cancer, local FGFR3 mutation)?
A: PD

Q: What about the “Best change in sum” value [16] of the same compound?
A: 22.2%

Q: And the Best overall response [16]?
A: PD

Q: What about the “Best change in sum” value [17] of the same compound?
A: –42.1%

Q: And the Best overall response [17]?
A: PR

Q: And the “Best change in sum” value [18]?
A: 65.2%

Q: And the Best overall response [18]?
A: PD

Q: And the “Best change in sum” value [19]?
A: 44.8%

Q: And the Best overall response [19]?
A: PD

Q: And the Best overall response (Part 2, 13.5 mg ID, pancreatic cancer (neuroendocrine), central FGFR1 amp)?
A: PD

Q: What about the “Best change in sum” value (Part 2, 13.5 mg ID, pancreatic cancer (neuroendocrine), central FGFR1 amp, local FGFR1 mutation (p.N577K)) of the same compound?
A: 40.8%

Q: What about the “Best change in sum” value [20] of the same compound?
A: –19.6%

Q: What about the Best overall response [20] of the same compound?
A: SD

Q: And the “Best change in sum” value [21]?
A: 24.2%

Q: And the Best overall response [21]?
A: PD

Q: And the “Median duration of response” value (responders, Part 2, 95% CI: 4.17, 14.95)?
A: 9.56 months
